Assay results from US10405547B2, “Substituted cyclic amides as herbicides” (FMC Corporation, priority 2015, dated 2019).

Tests used:
Format in all cases: in vivo
corn (Zea mays) = experiment: Test A postemergence, corn; conditions: visual injury, 0 to 100 scale (0 no effect, 100 complete control), approximately 10 days
In short: (§1)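 Greenhouse pot test in loam/sand soil. Pre: directed soil spray after seeding. Post: 1–2-leaf plants, 2–10 cm. Formulation: non-phytotoxic solvent + surfactant. Visual rating vs untreated controls at ~10 d, 0 (no effect) to 100 (complete control).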

[1] = test system: sedge, umbrella (small-flower umbrella sedge, Cyperus difformis); experiment: Test B flooded paddy test, umbrella sedge; conditions: 500 g ai/ha, applied to paddy water, visual rating after 13 to 15 days, scale 0 (no effect) to 100 (complete control)
In short: (§2)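 In-water treatment: compound dosed into 3 cm flood over soil, water level unchanged throughout. Controls run alongside; visual assessment at day 13–15.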

kochia (Kochia scoparia) [2] = experiment: Test A postemergence, kochia; conditions: visual injury, 0 to 100 scale (0 no effect, 100 complete control), approximately 10 days
In short: as §1

rice (Oryza sativa) = experiment: Test B flooded paddy test, rice; conditions: 500 g ai/ha, applied to paddy water, visual rating after 13 to 15 days, scale 0 (no effect) to 100 (complete control)
In short: as §2

[3] = test system: wheat (Triticum aestivum); experiment: Test A postemergence, wheat; conditions: visual injury, 0 to 100 scale (0 no effect, 100 complete control), approximately 10 days
In short: as §1

[4] = test system: barnyardgrass (Echinochloa crus-galli); experiment: Test B flooded paddy test, barnyardgrass; conditions: 500 g ai/ha, applied to paddy water, visual rating after 13 to 15 days, scale 0 (no effect) to 100 (complete control)
In short: as §2

[5] = test system: ryegrass, Italian (Lolium multiflorum); experiment: Test A postemergence, Italian ryegrass; conditions: visual injury, 0 to 100 scale (0 no effect, 100 complete control), approximately 10 days
In short: as §1

[6] = test system: ducksalad (Heteranthera limosa); experiment: Test B flooded paddy test, ducksalad; conditions: 500 g ai/ha, applied to paddy water, visual rating after 13 to 15 days, scale 0 (no effect) to 100 (complete control)
In short: as §2

[7] = test system: barnyardgrass (Echinochloa crus-galli); experiment: Test A preemergence, barnyardgrass; conditions: 0 to 100 scale (0 no effect, 100 complete control)
In short: as §1

[8] = test system: ragweed (common ragweed, Ambrosia elatior); experiment: Test A postemergence, ragweed; conditions: visual injury, 0 to 100 scale (0 no effect, 100 complete control), approximately 10 days
In short: as §1

[9] = test system: pigweed (Amaranthus retroflexus); experiment: Test A preemergence, pigweed; conditions: 0 to 100 scale (0 no effect, 100 complete control)
In short: as §1

kochia (Kochia scoparia) [10] = experiment: Test A preemergence, kochia; conditions: 0 to 100 scale (0 no effect, 100 complete control)
In short: as §1

[11] = test system: foxtail, giant (Setaria faberii); experiment: Test A postemergence, giant foxtail; conditions: visual injury, 0 to 100 scale (0 no effect, 100 complete control), approximately 10 days
In short: as §1

[12] = test system: barnyardgrass (Echinochloa crus-galli); experiment: Test A postemergence, barnyardgrass; conditions: visual injury, 0 to 100 scale (0 no effect, 100 complete control), approximately 10 days
In short: as §1

[13] = test system: galium (catchweed bedstraw, Galium aparine); experiment: Test A postemergence, galium; conditions: visual injury, 0 to 100 scale (0 no effect, 100 complete control), approximately 10 days
In short: as §1

[14] = test system: blackgrass (Alopecurus myosuroides); experiment: Test A postemergence, blackgrass; conditions: visual injury, 0 to 100 scale (0 no effect, 100 complete control), approximately 10 days
In short: as §1

[15] = test system: ragweed (common ragweed, Ambrosia elatior); experiment: Test A preemergence, ragweed; conditions: 0 to 100 scale (0 no effect, 100 complete control)
In short: as §1

[16] = test system: pigweed (Amaranthus retroflexus); experiment: Test A postemergence, pigweed; conditions: visual injury, 0 to 100 scale (0 no effect, 100 complete control), approximately 10 days
In short: as §1

[17] = test system: ryegrass, Italian (Lolium multiflorum); experiment: Test A preemergence, Italian ryegrass; conditions: 0 to 100 scale (0 no effect, 100 complete control)
In short: as §1

[18] = test system: foxtail, giant (Setaria faberii); experiment: Test A preemergence, giant foxtail; conditions: 0 to 100 scale (0 no effect, 100 complete control)
In short: as §1

O=C1NCC(c2cccc(OCc3ccccc3)c2)C1C(=O)Nc1cccc(F)c1F (stereo not drawn) [Compound 65]
0: Plant response rating, Corn (corn (Zea mays); 125 g ai/ha) | Plant response rating, Corn (corn (Zea mays); 500 g ai/ha) | Plant response rating, Sedge, Umbrella (Flood) [1] | Plant response rating, Kochia (kochia (Kochia scoparia) [2]; 125 g ai/ha) | Plant response rating, Kochia (kochia (Kochia scoparia) [2]; 500 g ai/ha) | Plant response rating, Rice (Flood) (rice (Oryza sativa)) | Plant response rating, Wheat ([3]; 125 g ai/ha) | Plant response rating, Wheat ([3]; 500 g ai/ha) | Plant response rating, Barnyardgrass (Flood) [4] | Plant response rating, Ryegrass, Italian ([5]; 125 g ai/ha) | Plant response rating, Ryegrass, Italian ([5]; 500 g ai/ha) | Plant response rating, Ducksalad (Flood) [6] | Plant response rating, Barnyardgrass ([7]; 125 g ai/ha) | Plant response rating, Barnyardgrass ([7]; 500 g ai/ha) | Plant response rating, Ragweed ([8]; 125 g ai/ha) | Plant response rating, Ragweed ([8]; 500 g ai/ha) | Plant response rating, Pigweed ([9]; 125 g ai/ha) | Plant response rating, Pigweed ([9]; 500 g ai/ha) | Plant response rating, Kochia (kochia (Kochia scoparia) [10]; 125 g ai/ha) | Plant response rating, Kochia (kochia (Kochia scoparia) [10]; 500 g ai/ha) | Plant response rating, Foxtail, Giant ([11]; 125 g ai/ha) | Plant response rating, Foxtail, Giant ([11]; 500 g ai/ha) | Plant response rating, Barnyardgrass ([12]; 125 g ai/ha) | Plant response rating, Barnyardgrass ([12]; 500 g ai/ha) | Plant response rating, Galium ([13]; 125 g ai/ha) | Plant response rating, Galium ([13]; 500 g ai/ha) | Plant response rating, Blackgrass ([14]; 125 g ai/ha) | Plant response rating, Blackgrass ([14]; 500 g ai/ha) | Plant response rating, Ragweed ([15]; 125 g ai/ha) | Plant response rating, Ragweed ([15]; 500 g ai/ha) | Plant response rating, Pigweed ([16]; 125 g ai/ha) | Plant response rating, Pigweed ([16]; 500 g ai/ha) | Plant response rating, Ryegrass, Italian ([17]; 125 g ai/ha) | Plant response rating, Ryegrass, Italian ([17]; 500 g ai/ha) | Plant response rating, Foxtail, Giant ([18]; 125 g ai/ha) | Plant response rating, Foxtail, Giant ([18]; 500 g ai/ha)

O=C1NCC(c2cccc(OCc3ccccc3)c2)C1C(=O)Nc1ccc(F)c(F)c1F (stereo not drawn) [Compound 66]
0: Plant response rating, Corn (corn (Zea mays); 125 g ai/ha) | Plant response rating, Corn (corn (Zea mays); 500 g ai/ha) | Plant response rating, Sedge, Umbrella (Flood) [1] | Plant response rating, Kochia (kochia (Kochia scoparia) [2]; 125 g ai/ha) | Plant response rating, Kochia (kochia (Kochia scoparia) [2]; 500 g ai/ha) | Plant response rating, Rice (Flood) (rice (Oryza sativa)) | Plant response rating, Wheat ([3]; 125 g ai/ha) | Plant response rating, Wheat ([3]; 500 g ai/ha) | Plant response rating, Barnyardgrass (Flood) [4] | Plant response rating, Ryegrass, Italian ([5]; 125 g ai/ha) | Plant response rating, Ryegrass, Italian ([5]; 500 g ai/ha) | Plant response rating, Ducksalad (Flood) [6] | Plant response rating, Barnyardgrass ([7]; 125 g ai/ha) | Plant response rating, Barnyardgrass ([7]; 500 g ai/ha) | Plant response rating, Ragweed ([8]; 125 g ai/ha) | Plant response rating, Ragweed ([8]; 500 g ai/ha) | Plant response rating, Pigweed ([9]; 125 g ai/ha) | Plant response rating, Pigweed ([9]; 500 g ai/ha) | Plant response rating, Kochia (kochia (Kochia scoparia) [10]; 125 g ai/ha) | Plant response rating, Kochia (kochia (Kochia scoparia) [10]; 500 g ai/ha) | Plant response rating, Foxtail, Giant ([11]; 125 g ai/ha) | Plant response rating, Foxtail, Giant ([11]; 500 g ai/ha) | Plant response rating, Barnyardgrass ([12]; 125 g ai/ha) | Plant response rating, Barnyardgrass ([12]; 500 g ai/ha) | Plant response rating, Galium ([13]; 125 g ai/ha) | Plant response rating, Galium ([13]; 500 g ai/ha) | Plant response rating, Blackgrass ([14]; 125 g ai/ha) | Plant response rating, Blackgrass ([14]; 500 g ai/ha) | Plant response rating, Ragweed ([15]; 125 g ai/ha) | Plant response rating, Ragweed ([15]; 500 g ai/ha) | Plant response rating, Pigweed ([16]; 125 g ai/ha) | Plant response rating, Pigweed ([16]; 500 g ai/ha) | Plant response rating, Ryegrass, Italian ([17]; 125 g ai/ha) | Plant response rating, Ryegrass, Italian ([17]; 500 g ai/ha) | Plant response rating, Foxtail, Giant ([18]; 125 g ai/ha) | Plant response rating, Foxtail, Giant ([18]; 500 g ai/ha)
